Data on 20 compounds can be found in ChEMBL document CHEMBL3352035, “Design and synthesis of new 7-(N-substituted-methyl)-camptothecin derivatives as potent cytotoxic agents” (Bioorg Med Chem Lett, 2014).

The test system of assay [1] is MDA-MB-231. The experiment in a line: cells. To be noted: Homo sapiens, MDA-MB-231, 72 h.
Description: Cytotoxicity against human MDA-MB-231 cells after 72 hrs sulforhodamine B colorimetric assay
In assay [2] the test system is A549. The experiment in a line: Cytotoxicity against human A549 cells after 72 hrs sulforhodamine B colorimetric assay. As to conditions: A549, 72 h.
For assay [3], the system named is KB. The assay is described as follows: Cytotoxicity against human KB cells after 72 hrs sulforhodamine B colorimetric assay. On the technique in general: In SRB staining, fixed cells bind dye roughly in proportion to their protein.
A short description of assay [4]: cells. To be noted: Homo sapiens, KBVIN, 72 h.
Description: Cytotoxicity against multidrug-resistant human KBVIN cells after 72 hrs sulforhodamine B colorimetric assay
Assay [5] in a line: Ratio of topotecan IC50 to compound IC50 for multidrug-resistant human KBVIN cells after 72 hrs sulforhodamine B colorimetric assay. The format is functional.
The test system of assay [6] is A549. The assay is described as follows: Ratio of topotecan IC50 to compound IC50 for human A549 cells after 72 hrs sulforhodamine B colorimetric assay. It counts as functional.

Broadly, the IC50 is the concentration needed to halve the response being measured. A low value points to greater potency. In the case of `CC[C@@]1(O)C(=O)OCc2c1cc1n(c2=O)Cc2c-1nc1ccccc1c2CNc1ccc(OC)cc1`, the IC50 in assay [1] stood at 84.2 nM; in assay [2], 47 nM; in assay [3] it was 75.8 nM; in assay [4], 77.3 nM.
On the same counts, the results for `CC[C@@]1(O)C(=O)OCc2c1cc1n(c2=O)Cc2c-1nc1ccccc1c2CN1CCCCC1` are 69.9 nM, 21.9 nM, 49.9 nM and 20.5 nM.
On the same counts, the results for `CC[C@@]1(O)C(=O)OCc2c1cc1n(c2=O)Cc2c-1nc1ccccc1c2CN1CCCC1` are 60.9 nM, 15.5 nM, 37.1 nM and 20.8 nM.
With `CC[C@@]1(O)C(=O)OCc2c1cc1n(c2=O)Cc2c-1nc1ccccc1c2CN1CCN(C)CC1`, the IC50 in assay [1] is 110 nM; in assay [2], 62.2 nM; in assay [3] it was 89.5 nM; in assay [4], 274 nM.
With `CC[C@@]1(O)C(=O)OCc2c1cc1n(c2=O)Cc2c-1nc1ccccc1c2CN(C(C)C)C(C)C`, the IC50 in assay [1] was determined as 1110 nM; in assay [2], 534 nM; in assay [3], 813 nM; in assay [4], 1060 nM.
With `CCCNCc1c2c(nc3ccccc13)-c1cc3c(c(=O)n1C2)COC(=O)[C@]3(O)CC`, the IC50 in assay [1] was 31.6 nM; in assay [2], 4.8 nM; in assay [3], 15 nM; in assay [4], 21.7 nM. The “Ratio IC50” value in assay [5] and in assay [6] was 7 in each case.
As to `CC[C@@]1(O)C(=O)OCc2c1cc1n(c2=O)Cc2c-1nc1ccccc1c2CNCCO`, the IC50 in assay [1] was determined as 378 nM; in assay [2], 150 nM; in assay [3] it was 208 nM; in assay [4], 183 nM.
`CC[C@@]1(O)C(=O)OCc2c1cc1n(c2=O)Cc2c-1nc1ccccc1c2CNc1ccc(C)cc1`: the IC50 in assay [1] worked out at 92.7 nM; in assay [2] it was 58.7 nM; in assay [3] it was 81.7 nM; in assay [4], 79.5 nM.
As to `CC[C@@]1(O)C(=O)OCc2c1cc1n(c2=O)Cc2c-1nc1ccccc1c2CNc1ccccc1OC`, the IC50 in assay [1] came to 26.4 nM; in assay [2], 2.3 nM; in assay [3] it was 4.6 nM; in assay [4], 14.9 nM. Besides, the “Ratio IC50” value in assay [5] and in assay [6] was 7 in each case.
In the case of `CC[C@@]1(O)C(=O)OCc2c1cc1n(c2=O)Cc2c-1nc1ccccc1c2CNc1ccc(F)cc1`, the IC50 in assay [1] came out at 30 nM; in assay [2], 6.3 nM; in assay [3], 5 nM; in assay [4], 13.2 nM. Besides, the “Ratio IC50” value in assay [5] and in assay [6] was 7 in each case.
Consider `CC[C@@]1(O)C(=O)OCc2c1cc1n(c2=O)Cc2c-1nc1ccccc1c2CNc1ccc(Cl)cc1`, for which the IC50 came to 64.4 nM in assay [1], 39.1 nM in assay [2], 39.7 nM in assay [3] and 12.9 nM in assay [4].
For the compound `CC[C@@]1(O)C(=O)OCc2c1cc1n(c2=O)Cc2c-1nc1ccccc1c2CNc1ccc(Br)cc1`, the IC50 in assay [1] is 114 nM; in assay [2], 59.2 nM; in assay [3] it was 82.1 nM; in assay [4] it was 63.3 nM.
Consider `CC[C@@]1(O)C(=O)OCc2c1cc1n(c2=O)Cc2c-1nc1ccccc1c2CNc1cccc2ccccc12`, for which the half-maximal inhibitory concentration (IC50) came out at 64 nM in assay [1], 36.2 nM in assay [2], 61.5 nM in assay [3] and 78 nM in assay [4].
Consider `CC[C@@]1(O)C(=O)OCc2c1cc1n(c2=O)Cc2c-1nc1ccccc1c2CNc1cccc(Cl)c1`, for which the IC50 in assay [1] amounted to 96.1 nM; in assay [2] it was 50.4 nM; in assay [3], 71.3 nM; in assay [4], 68.8 nM.
On the same counts, the results for `CC[C@@]1(O)C(=O)OCc2c1cc1n(c2=O)Cc2c-1nc1ccccc1c2CNc1ccccc1Cl` are 57.6 nM, 17 nM, 37.1 nM and 12.8 nM.
For `CC[C@@]1(O)C(=O)OCc2c1cc1n(c2=O)Cc2c-1nc1ccccc1c2CNCc1ccccc1`, the IC50 amounted to 337 nM in assay [1], 122 nM in assay [2], 180 nM in assay [3] and 117 nM in assay [4].
As for `CC[C@@]1(O)C(=O)OCc2c1cc1n(c2=O)Cc2c-1nc1ccccc1c2CNc1ccccn1`, the IC50 in assay [1] came out at 108 nM; in assay [2] it was 51.4 nM; in assay [3] it was 78.6 nM; in assay [4], 70.6 nM.
With `CC[C@@]1(O)C(=O)OCc2c1cc1n(c2=O)Cc2c-1nc1ccccc1c2CNc1ccccc1`, the IC50 in assay [1] was 78.1 nM; in assay [2], 53.2 nM; in assay [3], 78.3 nM; in assay [4] it was 47.9 nM.
As to `CC[C@@]1(O)C(=O)OCc2c1cc1n(c2=O)Cc2c-1nc1ccccc1c2CNC1CCCCC1`, the IC50 in assay [1] was 53.2 nM; in assay [2], 18.8 nM; in assay [3] it was 36.2 nM; in assay [4], 16.5 nM.
For `CC(=O)O[C@H]1C(=O)[C@@]2(C)[C@H]([C@H](OC(=O)c3ccccc3)[C@]3(O)C[C@H](OC(=O)[C@H](O)[C@@H](NC(=O)c4ccccc4)c4ccccc4)C(C)=C1C3(C)C)[C@]1(OC(C)=O)CO[C@@H]1C[C@@H]2O` [PACLITAXEL], the half-inhibitory concentration (IC50) amounted to 6.6 nM in assay [1], 5.7 nM in assay [2], 3.9 nM in assay [3] and 1440 nM in assay [4].
